Measured values reported in patent US7399762B2, “Opioid receptor agonist compounds and their use in treatment of pain” (Research Triangle Institute, priority 2005, dated 2008).

Key:
Assay type in all cases: biochemical
[1] = target: T1, human kappa opioid receptor (Homo sapiens, UniProt P41145); test: Apparent affinity (Ke): shift of U69,593 dose response curve in [35S]GTP-γ-S binding
T1 construct: expressed in transfected cells; host or cells: CHO cells (membrane homogenates)
Excerpt: Determination of apparent affinity (Ke). The ability of a single concentration of test compound to shift the U69,593 (full kappa opioid receptor agonist) dose response curve to the right was used to determine the apparent affinity (Ke) of the test compounds. Assay conditions and analysis of the data were identical to that detailed for the determination of intrinsic activity except that membrane homogenates from CHO cells expressing the human kappa opioid receptor were used, and a single, identical concentration of test compound was included with each assayed concentration of kappa agonist. […]

human mu opioid receptor = target: T2, human mu opioid receptor (Homo sapiens, UniProt P35372); test: [35S]GTP-γ-S binding stimulation, intrinsic activity at mu receptor; settings: for intrinsic activity at the mu opioid receptor (in words): compared with DAMGO
T2 construct: expressed in transfected cells; host or cells: CHO cells (membrane homogenates)
T2 sequence (P35372 whole entry): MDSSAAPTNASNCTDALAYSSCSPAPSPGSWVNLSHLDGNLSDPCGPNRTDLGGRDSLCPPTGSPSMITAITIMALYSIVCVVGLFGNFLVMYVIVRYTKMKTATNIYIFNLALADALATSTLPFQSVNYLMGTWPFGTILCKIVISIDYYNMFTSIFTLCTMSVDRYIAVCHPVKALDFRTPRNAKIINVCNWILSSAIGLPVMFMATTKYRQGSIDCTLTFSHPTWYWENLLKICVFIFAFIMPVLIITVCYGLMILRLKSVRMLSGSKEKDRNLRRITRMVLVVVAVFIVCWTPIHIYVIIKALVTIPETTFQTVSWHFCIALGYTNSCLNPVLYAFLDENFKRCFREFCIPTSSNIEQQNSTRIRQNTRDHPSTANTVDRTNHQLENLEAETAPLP
Method: (§1) Determination of intrinsic activity. Test compounds 2.8 and 2.11 were assayed for their ability to stimulate [35S]GTP-γ-S binding in CHO cell membrane homogenates expressing either the human mu or human delta opioid receptor. The compounds were assayed in triplicate at eight different concentrations. […] The membranes were incubated with one of eight concentrations of positive control or test compound, 0.1 nM [35S]GTP-γ-S and 10 μM GDP in a 50 mM HEPES buffer (pH 7.4) at room temperature for one hour, after which bound radioligand was separated from free via rapid vacuum filtration over GF-B filters using a Brandel Scientific (Gaithersburg, MD) 96-well harvester. Bound radioactivity was determined using a TopCount 12-detector instrument (Packard Instruments) using standard scintillation counting techniques. The data were normalized to samples containing vehicle (basal binding), and a three-parameter logistic curve fit to the data using Prism (version 3.0, GraphPad Software, Inc., San Diego, Calif.). The EC50 and upper asymptote (Emax) were calculated for each compound and the data reported as mean ±SEM.

[2] = target: T3, human delta opioid receptor (Homo sapiens, UniProt P41143); test: [35S]GTP-γ-S binding stimulation, intrinsic activity at delta receptor; settings: for intrinsic activity at the delta opioid receptor (in words): compared with DPDPE; for Emax: read-out: Agonist δ Emax (% DPDPE)
T3 construct: expressed in transfected cells; host or cells: CHO cells (membrane homogenates)
T3 sequence (P41143 whole entry): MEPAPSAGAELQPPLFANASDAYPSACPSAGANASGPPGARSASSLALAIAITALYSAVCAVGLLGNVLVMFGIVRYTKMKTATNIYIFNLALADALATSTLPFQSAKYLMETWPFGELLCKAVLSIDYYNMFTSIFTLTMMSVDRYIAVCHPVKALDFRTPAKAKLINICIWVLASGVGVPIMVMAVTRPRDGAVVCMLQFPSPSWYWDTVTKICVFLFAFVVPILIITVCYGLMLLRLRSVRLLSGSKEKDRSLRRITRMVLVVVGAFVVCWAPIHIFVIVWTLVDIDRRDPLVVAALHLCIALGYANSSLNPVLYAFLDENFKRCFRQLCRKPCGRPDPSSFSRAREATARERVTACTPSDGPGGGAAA
Method: as §1

T1 sequence (P41145 whole entry): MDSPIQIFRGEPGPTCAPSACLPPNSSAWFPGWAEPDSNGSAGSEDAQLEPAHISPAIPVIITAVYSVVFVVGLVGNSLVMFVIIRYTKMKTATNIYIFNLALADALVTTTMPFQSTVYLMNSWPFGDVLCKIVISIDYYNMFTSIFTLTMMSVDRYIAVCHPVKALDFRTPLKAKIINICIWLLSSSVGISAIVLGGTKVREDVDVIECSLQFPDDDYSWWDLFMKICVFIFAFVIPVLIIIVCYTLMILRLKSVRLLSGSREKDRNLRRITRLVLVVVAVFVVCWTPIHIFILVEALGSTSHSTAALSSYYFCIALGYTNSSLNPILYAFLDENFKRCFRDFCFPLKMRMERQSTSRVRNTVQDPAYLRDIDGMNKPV

SMILES	activity at the kappa opioid receptor (in words) [1]	intrinsic activity at the mu opioid receptor (in words) (human mu opioid receptor)	Emax (human mu opioid receptor; relative to Emax of DAMGO, mean ±SEM, read-out: Agonist μ Emax (% DAMGO)) [%]	intrinsic activity at the delta opioid receptor (in words) [2]	Emax [2] [%]	maximum stimulation of [35S]GTP-γ-S binding compared with DAMGO (t-test) (human mu opioid receptor; p>0.05)
C[C@@H]1CN(CCCc2ccccc2)[C@H]2C[C@H](N)C[C@]1(c1cccc(O)c1)C2 [Compound 2.8, (−)-3-[(1 R,4S,5S,7R)-7-Amino-4-methyl-2-(3-phenylpropyl)-2-aza-bicyclo[3.3.1]non-5-yl]phenol]	good inhibitor	partial agonist	74 ± 12	potent full agonist	101 ± 14	–
C[C@@H](NC(=O)[C@@H](N)Cc1ccc(O)cc1)C(=O)NCC(=O)N(C)[C@@H](Cc1ccccc1)C(=O)NCCO [DAMGO, (D-Ala^2,MePhe^4,Gly-ol^5)enkephalin, reference compound]	–	full agonist	–	–	–	–
CNC1CC2CC(c3cccc(O)c3)(C1)C(C)CN2CCCc1ccccc1 (centres unmarked) [Compound 2.11, 5-(3-Hydroxyphenyl)-4-methyl-7-methylamino-2-(3-phenylprop-1-yl)-2-azabicyclo[3.3.1]nononane]	good inhibitor	full agonist	–	partial agonist	79.7 ± 7.7	not statistically different
